In one series the target is T1, human 5-HT1A receptors (Homo sapiens, UniProt P08908).
T1 construct: expressed in transfected cells; host or cells: HeLa cells (HA7)
T1 sequence (P08908 1-422): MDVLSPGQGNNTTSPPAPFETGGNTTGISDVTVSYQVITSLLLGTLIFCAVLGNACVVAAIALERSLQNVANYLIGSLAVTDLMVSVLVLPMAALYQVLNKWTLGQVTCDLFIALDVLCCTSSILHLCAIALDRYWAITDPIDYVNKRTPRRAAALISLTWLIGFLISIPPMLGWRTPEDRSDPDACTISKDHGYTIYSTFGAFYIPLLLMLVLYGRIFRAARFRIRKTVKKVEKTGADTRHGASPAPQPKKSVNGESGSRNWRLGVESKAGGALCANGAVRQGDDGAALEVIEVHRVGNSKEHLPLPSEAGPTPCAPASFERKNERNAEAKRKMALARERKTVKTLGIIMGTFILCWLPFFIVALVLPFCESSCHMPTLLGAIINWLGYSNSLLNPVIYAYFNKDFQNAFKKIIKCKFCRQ
As to the kind of experiment: Inhibition of 3H-5-CT binding to human 5-HT1A receptors. The protocol:
Inhibition of ^3H-5-CT Binding to Human 5-HT1A Receptors.
Human 5-HT1A receptors (40 μg of cell homogenate) were incubated for 15 minutes at 37° C. in 50 mM Tris buffer at pH 7.7 in the presence of ^3H-5-CT. Non-specific binding was determined by including 10 μM of metergoline. The reaction was terminated by rapid filtration through Unifilter GF/B filters on a Tomtec Cell Harvester. Filters were counted in a Packard Top Counter.

For series [1], the target named is T2, 3H-5-HT uptake into whole rat brain synaptosomes (serotonin reuptake) (Rattus norvegicus, UniProt P31652).
T2 construct: from tissue; host or cells: whole rat brain synaptosomes
T2 sequence (P31652 whole entry): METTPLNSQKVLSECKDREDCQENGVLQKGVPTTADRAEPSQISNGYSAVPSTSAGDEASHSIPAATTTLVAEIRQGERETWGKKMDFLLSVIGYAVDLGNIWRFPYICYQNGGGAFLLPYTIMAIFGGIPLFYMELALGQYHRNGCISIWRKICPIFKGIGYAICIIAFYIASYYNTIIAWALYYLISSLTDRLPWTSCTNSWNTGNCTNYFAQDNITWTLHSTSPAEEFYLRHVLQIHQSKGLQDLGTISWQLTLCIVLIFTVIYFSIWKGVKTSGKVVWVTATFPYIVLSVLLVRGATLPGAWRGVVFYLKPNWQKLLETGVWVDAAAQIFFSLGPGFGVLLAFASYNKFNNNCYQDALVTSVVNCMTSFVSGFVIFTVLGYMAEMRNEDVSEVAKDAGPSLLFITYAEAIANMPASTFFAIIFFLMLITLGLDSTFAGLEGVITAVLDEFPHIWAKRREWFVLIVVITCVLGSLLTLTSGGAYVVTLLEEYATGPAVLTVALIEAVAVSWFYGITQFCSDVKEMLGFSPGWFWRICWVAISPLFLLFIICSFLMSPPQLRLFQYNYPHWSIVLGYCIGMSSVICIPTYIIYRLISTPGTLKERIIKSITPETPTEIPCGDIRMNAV
The experiment in a line: Inhibition of 3H-5-HT uptake into rat brain synaptosomes. It is filed as biochemical. On the procedure:
Inhibition of ^3H-5-HT Uptake Into Rat Brain Synaptosomes.
Using this method, the ability of drugs to inhibit the accumulation of ^3H-5-HT into whole rat brain synaptosomes is determined in vitro.

Series [2] has as its target T3, cloned 5-HT1A receptors stably expressed in transfected HeLa cells (HA7) (Homo sapiens, UniProt P08908).
T3 construct: expressed in transfected cells; host or cells: HeLa cells (HA7)
T3 sequence (P08908 1-422): T1 sequence (P08908 1-422)
As to the kind of experiment: 5-HT1A antagonistic activity: antagonism of 5-HT induced inhibition of forskolin induced cAMP accumulation. The settings on record: HeLa cells (HA7) expressing cloned 5-HT1A receptors. Format: cell-based. The protocol:
The assay was performed as a modification of the method described by Pauwels, P. J. et al, Biochem. Pharmacol. 1993, 45, 375.
In general terms: Changes in cAMP serve as a functional read-out for many G protein-coupled receptors.

Where [3] appears, read: cloned human 5-HT1A receptors in HeLa cells (HA7) homogenate, 15 minutes at 37° C., pH 7.7.
Where [4] appears, read: 3H-5-HT accumulation into whole rat brain synaptosomes, in vitro, read-out: Inhibition of serotonin reuptake IC50.

Drawing on patent publication US6596722B2, “Piperidine, tetrahydropyridine and piperazine derivatives, their preparation and use” (H. Lundbeck A/S, priority 1999, dated 2003), this text covers melting point and IC50 for 27 molecules.

Where a name gives a salt, the structure may show the parent alone. Read-outs that look alike come from different tables or passages of the source.

In the case of `Cc1cccc2occ(CCN3CCN(c4cccc5c4OCCO5)CC3)c12` (as salt: oxalate) [Compound 3c, 1-[1,4-Benzodioxan-5-yl]-4-[2-(4-methylbenzofuran-3-yl)ethyl]piperazine], the melting point (commonly the temperature, or range, at which the solid turns liquid) is 204 to 206 °C.
As to `c1ccc2c(c1)CCC2CCCCN1CCN(c2cccc3c2OCCO3)CC1` (stereo not drawn) [Compound 1c, 1-[1,4-Benzodioxan-5-yl]-4-[1-(indan-1-yl)-4-butyl]piperazine], the values for the IC50 (on human 5-HT1A receptors (setting [3]); in series [1] (setting [4])) were 2.5 nM and 130 nM, respectively.
Consider `c1cc2c(c(N3CCN(CCc4coc5ccccc45)CC3)c1)OCCO2` [Compound 3f, 1-[1,4-Benzodioxan-5-yl]-4-[2-(benzofuran-3-yl)ethyl]piperazine], for which the values for the IC50 (on human 5-HT1A receptors; in series [1]; in series [2]) were 8.3 nM, 12 nM and 290 nM, respectively.
With `Cc1ccc(Cl)c2occ(CCCN3CCN(c4cccc5c4OCCO5)CC3)c12` [Compound 4a, 1-[1,4-Benzodioxan-5-yl]-4-[3-(7-chloro-4-methylbenzofuran-3-yl)-1-propyl]piperazine], the IC50 (in general, the concentration at which inhibition is half-maximal) amounted to 32 nM in series [1] (setting [4]) and 260 nM in series [2].
As for `Clc1ccc2occ(CCN3CC=C(c4cccc5c4OCC5)CC3)c2c1` [Compound 3g, 1-[2-(5-chlorobenzofuran-3-yl)ethyl]-4-[2,3-dihydrobenzofuran-7-yl]-1,2,3,6-tetrahydropyridine], the IC50 at human 5-HT1A receptors amounted to 24 nM; in series [1] (setting [4]), 160 nM.
Regarding `Fc1ccc2occ(CCN3CC=C(c4cccc5ccoc45)CC3)c2c1` [Compound 3h, 4-[Benzofuran-7-yl]-1-[2-(5-fluorobenzofuran-3-yl)ethyl]-1,2,3,6-tetrahydropyridine], the IC50 on human 5-HT1A receptors amounted to 11 nM; in series [1] it was 43 nM.
Take `C(=CC1CCc2ccccc21)CCN1CCN(c2cccc3c2OCCO3)CC1` (stereo not drawn) [Compound 1b, 1-[1,4-Benzodioxan-5-yl]-4-[1-(indan-1-yl)-1-buten-4-yl]piperazine]: on human 5-HT1A receptors (setting [3]), the IC50 came to 6.1 nM.
Take `C1=CC(CCCCN2CCN(c3cccc4c3OCCO4)CC2)c2ccccc21` (stereo not drawn) [Compound 1a, 1-[1,4-Benzodioxan-5-yl]-4-[1-(inden-1-yl)-4-butyl]piperazine]: the IC50 stood at 1.7 nM at human 5-HT1A receptors (setting [3]), 61 nM in series [1] (setting [4]) and 170 nM in series [2].
`Fc1ccc2occ(CCN3CC=C(c4cccc5ccoc45)CC3)c2c1` (as salt: oxalate) [Compound 3h, 4-[Benzofuran-7-yl]-1-[2-(5-fluorobenzofuran-3-yl)ethyl]-1,2,3,6-tetrahydropyridine] came in with a melting point of 201 to 211 °C.
The same measure, in the same setting: to `c1cc2c(c(N3CCN(CCc4coc5ccccc45)CC3)c1)OCCO2` (as salt: oxalate) [Compound 3f, 1-[1,4-Benzodioxan-5-yl]-4-[2-(benzofuran-3-yl)ethyl]piperazine] belongs 206 to 208 °C.
With `Fc1ccc2occ(CCN3CCN(c4cccc5c4OCCO5)CC3)c2c1` [Compound 2a, 1-[1,4-Benzodioxan-5-yl]-4-[2-(5-fluorobenzofuran-3-yl)ethyl]piperazine], the IC50 came out at 14 nM at human 5-HT1A receptors (setting [3]), 0.69 nM in series [1] (setting [4]) and 100 nM in series [2].
`Clc1cccc2c(CCN3CCN(c4cccc5c4OCCO5)CC3)coc12` (as salt: oxalate) [Compound 3i, 1-[1,4-Benzodioxan-5-yl]-4-[2-(7-chlorobenzofuran-3-yl)ethyl]piperazine] had a melting point of 190 to 192 °C.
Turning to `Cc1cccc2occ(CCN3CCN(c4cccc5c4OCCO5)CC3)c12` [Compound 3c, 1-[1,4-Benzodioxan-5-yl]-4-[2-(4-methylbenzofuran-3-yl)ethyl]piperazine], the IC50 on human 5-HT1A receptors (setting [3]) was found to be 19 nM; in series [1] (setting [4]) it was 11 nM; in series [2] it was 2300 nM.
`C(=CC1CCc2ccccc21)CCN1CCN(c2cccc3c2OCCO3)CC1` (stereo not drawn) (as salt: oxalate) [Compound 1b, 1-[1,4-Benzodioxan-5-yl]-4-[1-(indan-1-yl)-1-buten-4-yl]piperazine]: the melting point lay in the range of 154 to 157 °C.
In the case of `Cc1ccc2c(CCN3CCN(c4cccc5c4OCCO5)CC3)coc2c1` (as salt: oxalate) [Compound 3e, 1-[1,4-Benzodioxan-5-yl]-4-[2-(6-methylbenzofuran-3-yl)ethyl]piperazine], the melting point was in the range of 174 to 176 °C.
Regarding `Clc1cccc2c(CCN3CCN(c4cccc5c4OCCO5)CC3)coc12` [Compound 3i, 1-[1,4-Benzodioxan-5-yl]-4-[2-(7-chlorobenzofuran-3-yl)ethyl]piperazine], the IC50 worked out at 2.1 nM at human 5-HT1A receptors (setting [3]), 1.5 nM in series [1] (setting [4]) and 1500 nM in series [2].
`Clc1ccc2c(CCN3CCN(c4cccc5c4OCCO5)CC3)n[nH]c2c1` (as salt: oxalate) [Compound 2b, 1-[1,4-Benzodioxan-5-yl]-4-[2-(6-chloroindazol-3-yl)ethyl]piperazine]: the melting point lay in the range of 111 to 113 °C.
Molecule `c1ccc2c(c1)CCC2CCCCN1CCN(c2cccc3c2OCCO3)CC1` (stereo not drawn) (as salt: oxalate) [Compound 1c, 1-[1,4-Benzodioxan-5-yl]-4-[1-(indan-1-yl)-4-butyl]piperazine] yielded a melting point of 154 to 155 °C.
Regarding `Fc1ccc2c(CCCN3CCN(c4cccc5c4OCCO5)CC3)noc2c1` (as salt: fumarate) [Compound 3b, 1-[1,4-Benzodioxan-5-yl]-4-[3-(6-fluorobenzo[1,2]isoxazol-3-yl)-1-propyl]piperazine], the melting point lay within 187 to 189 °C.
The same measure, in the same setting: to `Clc1ccc2occ(CCN3CCN(c4cccc5c4OCCO5)CC3)c2c1` (as salt: oxalate) [Compound 3d, 1-[1,4-Benzodioxan-5-yl]-4-[2-(5-chlorobenzofuran-3-yl)ethyl]piperazine] belongs 206 to 208 °C.
As for `Clc1ccc2occ(CCN3CCN(c4cccc5c4OCCO5)CC3)c2c1` [Compound 3d, 1-[1,4-Benzodioxan-5-yl]-4-[2-(5-chlorobenzofuran-3-yl)ethyl]piperazine], the IC50 on human 5-HT1A receptors (setting [3]) was found to be 18 nM; in series [1] (setting [4]) it was 34 nM; in series [2], 550 nM.
The corresponding values for `Cc1cccc2occ(CCCN3CCN(c4cccc5c4OCCO5)CC3)c12` [Compound 5a, 1-[1,4-Benzodioxan-5-yl]-4-[3-(4-methylbenzofuran-3-yl)-1-propyl]piperazine] are 2.9 nM, 15 nM and 390 nM.
Turning to `Clc1ccc2c(CCN3CCN(c4cccc5c4OCCO5)CC3)n[nH]c2c1` [Compound 2b, 1-[1,4-Benzodioxan-5-yl]-4-[2-(6-chloroindazol-3-yl)ethyl]piperazine], the IC50 on human 5-HT1A receptors (setting [3]) was 9.3 nM; in series [1] (setting [4]), 160 nM.
As for `Fc1ccc2c(CCCN3CCN(c4cccc5c4OCCO5)CC3)noc2c1` [Compound 3b, 1-[1,4-Benzodioxan-5-yl]-4-[3-(6-fluorobenzo[1,2]isoxazol-3-yl)-1-propyl]piperazine], the IC50 on human 5-HT1A receptors (setting [3]) worked out at 7.5 nM; in series [1] (setting [4]), 240 nM; in series [2], 74 nM.
On the same counts, the results for `Cc1ccc2c(CCN3CCN(c4cccc5c4OCCO5)CC3)coc2c1` [Compound 3e, 1-[1,4-Benzodioxan-5-yl]-4-[2-(6-methylbenzofuran-3-yl)ethyl]piperazine] are 8.8 nM, 58 nM and 1400 nM.
With `Fc1ccc2occ(CCN3CCN(c4cccc5ccoc45)CC3)c2c1` [Compound 3a, 1-[Benzofuran-7-yl]-4-[2-(5-fluorobenzofuran-3-yl)ethyl]piperazine], the IC50 at human 5-HT1A receptors (setting [3]) turned out to be 29 nM; in series [1] (setting [4]), 170 nM.
As to `Clc1ccc2occ(CCN3CC=C(c4cccc5c4OCC5)CC3)c2c1` (as salt: oxalate) [Compound 3g, 1-[2-(5-chlorobenzofuran-3-yl)ethyl]-4-[2,3-dihydrobenzofuran-7-yl]-1,2,3,6-tetrahydropyridine], the melting point is 187 to 202 °C.
